Source: US12427144B2, “Compounds and methods for the targeted degradation of androgen receptor” (Arvinas Operations, Inc., priority 2019, dated 2025)

Biological target: T1, Androgen Receptor (AR) (Homo sapiens, UniProt P10275)
T1 construct: endogenous in cells; host or cells: VCaP
T1 sequence (P10275 1-920): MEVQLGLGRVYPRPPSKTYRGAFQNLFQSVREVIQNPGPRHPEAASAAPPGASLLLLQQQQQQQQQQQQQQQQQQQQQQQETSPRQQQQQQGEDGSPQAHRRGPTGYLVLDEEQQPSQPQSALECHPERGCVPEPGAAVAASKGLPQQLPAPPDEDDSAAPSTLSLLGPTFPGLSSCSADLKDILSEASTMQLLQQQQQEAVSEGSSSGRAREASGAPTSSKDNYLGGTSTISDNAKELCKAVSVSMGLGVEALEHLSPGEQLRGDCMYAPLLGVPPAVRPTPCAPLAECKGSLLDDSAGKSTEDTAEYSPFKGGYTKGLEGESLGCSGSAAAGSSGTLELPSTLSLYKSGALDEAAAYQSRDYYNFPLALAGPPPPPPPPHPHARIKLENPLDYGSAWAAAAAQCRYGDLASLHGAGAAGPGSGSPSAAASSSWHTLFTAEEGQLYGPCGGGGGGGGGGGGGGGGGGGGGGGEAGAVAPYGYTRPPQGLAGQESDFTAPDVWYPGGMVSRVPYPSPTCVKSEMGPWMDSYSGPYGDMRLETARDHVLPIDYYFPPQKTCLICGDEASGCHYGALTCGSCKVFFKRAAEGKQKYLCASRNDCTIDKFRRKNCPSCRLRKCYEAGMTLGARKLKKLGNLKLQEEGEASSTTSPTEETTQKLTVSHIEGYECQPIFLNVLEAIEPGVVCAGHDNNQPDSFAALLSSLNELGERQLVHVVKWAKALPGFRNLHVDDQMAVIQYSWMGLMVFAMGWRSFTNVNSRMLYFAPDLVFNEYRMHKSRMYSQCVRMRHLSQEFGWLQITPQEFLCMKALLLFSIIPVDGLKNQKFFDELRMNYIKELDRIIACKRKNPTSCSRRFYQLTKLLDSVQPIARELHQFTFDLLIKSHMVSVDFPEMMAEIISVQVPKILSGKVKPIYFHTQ
Test: AR immunofluorescence staining, high content imager, VCaP cells
Assay type: cell-based
Conditions: for DC50: AR degradation by immunofluorescence; for Dmax: maximal AR degradation
Procedure, shortened: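 VCaP cells treated with compound, fixed in 4% PFA (8% 2× solution added directly for low-adherence lines), permeabilised with 0.1% Triton X-100 and blocked. Stained overnight at 4° C with anti-AR antibody, then FITC anti-rabbit secondary plus phalloidin and DAPI/Hoechst. Read by high-content imaging.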

Compound	DC50 [nM]	Dmax [%]
CC1(C)[C@H](NC(=O)c2cnc(N3CCC(CN4CCN(c5ccc(C(=O)NC6CCC(=O)NC6=O)c(F)c5)CC4)CC3)cn2)C(C)(C)[C@H]1Oc1ccc(C#N)c(Cl)c1 (stereo partly drawn) [Compound 18, N-((1R,3R)-3-(3-chloro-4-cyanophenoxy)-2,2,4,4-tetramethylcyclobutyl)-5-(4-((4-(4-((2,6-dioxopiperidin-3-yl)carbamoyl)-3-fluorophenyl)piperazin-1-yl)methyl)piperidin-1-yl)pyrazine-2-carboxamide]	1 to 10	50 to 70
Cc1cc(O[C@H]2C(C)(C)[C@H](NC(=O)c3ccc(N4CCO[C@H](CN(C(C)C)[C@H]5C[C@@H](Oc6ccc(C(=O)N[C@H]7CCC(=O)NC7=O)c(F)c6)C5)C4)cc3)C2(C)C)cc(C)c1C#N [Compound 47, 4-[(2R)-2-{[(propan-2-yl)[(1r,3r)-3-(4-{[(3S)-2,6-dioxopiperidin-3-yl]carbamoyl}-3-fluorophenoxy)cyclobutyl]amino]methyl}morpholin-4-yl]-N-[(1r,3r)-3-(4-cyano-3,5-dimethylphenoxy)-2,2,4,4-tetramethylcyclobutyl]benzamide]	< 1	≥ 70
Cc1cc(O[C@H]2C(C)(C)[C@H](NC(=O)c3ccc(N4CCC(O[C@H]5C[C@H](Oc6ccc(C(=O)N[C@H]7CCC(=O)NC7=O)c(F)c6)C5)CC4)cc3)C2(C)C)cc(C)c1C#N [Compound 73, N-[(1r,3r)-3-(4-cyano-3,5-dimethylphenoxy)-2,2,4,4-tetramethylcyclobutyl]-4-{4-[(1r,3r)-3-(4-{[(3S)-2,6-dioxopiperidin-3-yl]carbamoyl}-3-fluorophenoxy)cyclobutoxy]piperidin-1-yl}benzamide]	1 to 10	< 50
COc1cc(O[C@H]2C[C@H](N3CCOC4(CCN(c5ccc(C(=O)N[C@H]6C(C)(C)[C@H](Oc7cc(C)c(C#N)c(C)c7)C6(C)C)cc5)CC4)C3)C2)ccc1C(=O)NC1CCC(=O)NC1=O (some centres unmarked) [Compound 53, N-(2,6-dioxopiperidin-3-yl)-2-methoxy-4-[(1r,3r)-3-[9-(4-{[(1r,3r)-3-(4-cyano-3,5-dimethylphenoxy)-2,2,4,4-tetramethylcyclobutyl]carbamoyl}phenyl)-1-oxa-4,9-diazaspiro[5.5]undecan-4-yl]cyclobutoxy]benzamide]	< 1	≥ 70
COc1cc(O[C@H]2C(C)(C)[C@H](NC(=O)c3ccc(N4CCC(CN5CCN(c6ccc(C(=O)NC7CCC(=O)NC7=O)c(F)c6)CC5)CC4)cc3)C2(C)C)ccc1C#N (stereo partly drawn) [Compound 1, 4-(4-((1-(4-(((1R,3R)-3-(4-cyano-3-methoxyphenoxy)-2,2,4,4-tetramethylcyclobutyl)carbamoyl)phenyl)piperidin-4-yl)methyl)piperazin-1-yl)-N-(2,6-dioxopiperidin-3-yl)-2-fluorobenzamide]	< 1	≥ 70
CC1(C)[C@H](NC(=O)c2ccc(N3CCC(CN4CCN(c5ccc(C(=O)NC6CCC(=O)NC6=O)c(F)c5)CC4)CC3)cc2)C(C)(C)[C@H]1Oc1ccc(C#N)c(Cl)c1 (stereo partly drawn) [Compound 19, 4-(4-((1-(4-(((1R,3R)-3-(3-chloro-4-cyanophenoxy)-2,2,4,4-tetramethylcyclobutyl)carbamoyl)phenyl)piperidin-4-yl)methyl)piperazin-1-yl)-N-(2,6-dioxopiperidin-3-yl)-2-fluorobenzamide]	< 1	≥ 70
CCN(C(=O)c1ccc(N2CCN(CC3CCN(c4ccc(C(=O)N[C@H]5CC[C@H](Oc6ccc(C#N)c(Cl)c6)CC5)nn4)CC3)CC2)cc1)C1CCC(=O)NC1=O (stereo partly drawn) [Compound 32, N-((1R,4R)-4-(3-chloro-4-cyanophenoxy)cyclohexyl)-6-(4-((4-(4-((2,6-dioxopiperidin-3-yl)(ethyl)carbamoyl)phenyl)piperazin-1-yl)methyl)piperidin-1-yl)pyridazine-3-carboxamide]	≥ 100	< 50
CC(C)N(CC1CCN(c2cnc(C(=O)N[C@H]3CC[C@H](Oc4ccc(C#N)c(Cl)c4)CC3)cn2)CC1)[C@H]1C[C@H](Oc2ccc(C(=O)NC3CCC(=O)NC3=O)cc2)C1 (some centres unmarked) [Compound 27, N-[4-(3-chloro-4-cyano-phenoxy)cyclohexyl]-5-[4-[[[3-[4-[(2,6-dioxo-3-piperidyl)carbamoyl]phenoxy]cyclobutyl]-isopropyl-amino]methyl]-1-piperidyl]pyrazine-2-carboxamide]	< 1	≥ 70
N#Cc1ccc(O[C@H]2CC[C@H](NC(=O)c3ccc(N4CCC(CN5CCN(c6ccc(C(=O)NC7CCC(=O)NC7=O)nc6)CC5)CC4)nn3)CC2)cc1Cl (stereo partly drawn) [Compound 22, N-((1R,4R)-4-(3-chloro-4-cyanophenoxy)cyclohexyl)-6-(4-((4-(6-((2,6-dioxopiperidin-3-yl)carbamoyl)pyridin-3-yl)piperazin-1-yl)methyl)piperidin-1-yl)pyridazine-3-carboxamide]	< 1	≥ 70
COc1cc(O[C@H]2C[C@H](OC3CCN(c4ccc(C(=O)N[C@H]5C(C)(C)[C@H](Oc6cc(C)c(C#N)c(C)c6)C5(C)C)cc4)CC3)C2)ccc1C(=O)NC1CCC(=O)NC1=O (some centres unmarked) [Compound 55, N-(2,6-dioxopiperidin-3-yl)-2-methoxy-4-[(1r,3r)-3-{[1-(4-{[(1r,3r)-3-(4-cyano-3,5-dimethylphenoxy)-2,2,4,4-tetramethylcyclobutyl]carbamoyl}phenyl)piperidin-4-yl]oxy}cyclobutoxy]benzamide]	< 1	≥ 70

The next lines start with the values.

DC50 [nM]	Dmax [%]	Compound
< 1	≥ 70	COc1cc(O[C@H]2C(C)(C)[C@H](NC(=O)c3ccc(N4CCC(CN5CCN(c6ccc(C(=O)NC7CCC(=O)NC7=O)cc6OC)CC5)CC4)cc3)C2(C)C)ccc1C#N (some centres unmarked) [Compound 60, N-(2,6-dioxopiperidin-3-yl)-3-methoxy-4-(4-{[1-(4-{[(1r,3r)-3-(4-cyano-3-methoxyphenoxy)-2,2,4,4-tetramethylcyclobutyl]carbamoyl}phenyl)piperidin-4-yl]methyl}piperazin-1-yl)benzamide]
< 1	≥ 70	Cc1cc(O[C@H]2C(C)(C)[C@H](NC(=O)c3ccc(N4CCO[C@H](CN5CCN(c6ccc(C(=O)N[C@H]7CCC(=O)NC7=O)c(F)c6)CC5)C4)cc3)C2(C)C)cc(C)c1C#N [Compound 48, N-[(3S)-2,6-dioxopiperidin-3-yl]-2-fluoro-4-(4-{[(2R)-4-(4-{[(1r,3r)-3-(4-cyano-3,5-dimethylphenoxy)-2,2,4,4-tetramethylcyclobutyl]carbamoyl}phenyl)morpholin-2-yl]methyl}piperazin-1-yl)benzamide]
< 1	≥ 70	COCCN(C[C@H]1CN(c2ccc(C(=O)N[C@H]3C(C)(C)[C@@H](Oc4ccc(C#N)c(OC)c4)C3(C)C)cc2)CCO1)[C@H]1C[C@H](Oc2ccc(C(=O)N[C@@H]3CCC(=O)NC3=O)c(F)c2)C1 [Compound 50, 4-[(2S)-2-{[(2-methoxyethyl)[(1r,3r)-3-(4-{[(3R)-2,6-dioxopiperidin-3-yl]carbamoyl}-3-fluorophenoxy)cyclobutyl]amino]methyl}morpholin-4-yl]-N-[(1r,3r)-3-(4-cyano-3-methoxyphenoxy)-2,2,4,4-tetramethylcyclobutyl]benzamide]
< 1	≥ 70	COc1cc(O[C@H]2C(C)(C)[C@H](NC(=O)c3ccc(N4CCO[C@@H](CN5CCN(c6ccc(C(=O)NC7CCC(=O)NC7=O)c(OC)c6)CC5)C4)cc3)C2(C)C)ccc1C#N (stereo partly drawn) [Compound 58, N-(2,6-dioxopiperidin-3-yl)-2-methoxy-4-(4-{[(2S)-4-(4-{[(1r,3r)-3-(4-cyano-3-methoxyphenoxy)-2,2,4,4-tetramethylcyclobutyl]carbamoyl}phenyl)morpholin-2-yl]methyl}piperazin-1-yl)benzamide]
< 1	50 to 70	Cc1cc(O[C@H]2C(C)(C)[C@H](NC(=O)c3ccc(N4CCO[C@@H](CN(C(C)C)[C@H]5C[C@H](Oc6ccc(C(=O)N[C@H]7CCC(=O)NC7=O)c(F)c6)C5)C4)cc3)C2(C)C)cc(C)c1C#N [Compound 65, 4-[(2S)-2-{[(propan-2-yl)[(1r,3r)-3-(4-{[(3S)-2,6-2,2,4,4-dioxopiperidin-3-yl]carbamoyl}-3-fluorophenoxy)cyclobutyl]amino]methyl}morpholin-4-yl]-N-[(1r,3r)-3-(4-cyano-3,5-dimethylphenoxy)-2,2,4,4-tetramethylcyclobutyl]benzamide]
< 1	≥ 70	COc1cc(O[C@H]2C(C)(C)[C@H](NC(=O)c3ccc(N4CCO[C@@H](CN5CCN(c6ccc(C(=O)NC7CCC(=O)NC7=O)cc6OC)CC5)C4)cc3)C2(C)C)ccc1C#N (stereo partly drawn) [Compound 57, N-(2,6-dioxopiperidin-3-yl)-3-methoxy-4-(4-{[(2S)-4-(4-{[(1r,3r)-3-(4-cyano-3-methoxyphenoxy)-2,2,4,4-tetramethylcyclobutyl]carbamoyl}phenyl)morpholin-2-yl]methyl}piperazin-1-yl)benzamide]
